IC50 data for 37 compounds are collected here from patent US20230124361A1, “SMALL MOLECULE STING ANTAGONISTS” (CURADEV PHARMA PVT. LTD., priority 2020, published 2023).

Each structure is given as a SMILES string.

T1 sequence (Q86WV6 whole entry R71H/G230A/H232R/R293Q): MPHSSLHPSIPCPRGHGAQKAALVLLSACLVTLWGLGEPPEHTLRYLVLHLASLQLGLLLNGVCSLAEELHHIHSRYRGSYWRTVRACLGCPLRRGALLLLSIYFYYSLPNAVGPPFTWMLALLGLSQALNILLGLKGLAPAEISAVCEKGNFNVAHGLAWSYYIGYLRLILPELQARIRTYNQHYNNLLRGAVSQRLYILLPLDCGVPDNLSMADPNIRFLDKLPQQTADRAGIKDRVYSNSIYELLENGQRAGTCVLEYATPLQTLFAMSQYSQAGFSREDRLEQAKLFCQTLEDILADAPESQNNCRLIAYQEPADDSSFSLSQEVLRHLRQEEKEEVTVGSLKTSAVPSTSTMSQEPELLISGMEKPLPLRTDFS

The assay addresses T1, STING (Homo sapiens, UniProt Q86WV6, G230A/H232R/R293Q/R71H).
T1 construct: host or cells: THP1-Dual cells (human THP-1 monocyte line with Lucia/SEAP reporters)
The experiment in a line: Reporter gene expression assay in THP1-Dual cells (IRF pathway Lucia luciferase, 2',3'-cGAMP stimulation). The class given is cell-based. The conditions noted are these: 10 min preincubation, 5 μM 2',3'-cGAMP, 20 hr, IRF reporter QUANTI-Luc, read-out: THP-1 (HAQ) Activity. As for the experimental part:
Reporter Gene Expression Assay in THP-1 Cells
THP1-Dual™ cells (Invivogen) were derived from the human THP-1 monocyte cell line by stable integration of two inducible reporter constructs. As a result, THP1-Dual™ cells allow the simultaneous study of the IRF pathway, by assessing the activity of a secreted luciferase (Lucia) and the NF-κB pathway, by monitoring the activity of secreted SEAP. 5×10^4 THP1-Dual™ cells were seeded in 384-well plates in growth medium and preincubated with novel compounds for 10 minutes followed by stimulation with 5 μM 2′,3′-cGAMP. After 20 hr of stimulation the supernatant was removed and the IRF pathway reporter protein was readily measured in the cell culture supernatant using QUANTI-Luc™ (Invivogen), a luciferase detection reagent on a Spectramax i3X luminometer.
In the tables below, IC50 value ranges for exemplary compounds are given. The IC50 ranges are indicated as “A” for values less than or equal to 1 μM, “B” for values greater than 1 μM and less than or equal to 10 μM, and “C” for values greater than 10 μM.
`O=C(Nc1ccc(F)cc1)Nc1ccc2c(c1)N(Cc1cn3ccccc3n1)C(=O)CS2` [Example 26, 1-(4-fluorophenyl)-3-(4-(imidazo [1,2-a]pyridin-2-ylmethyl)-3-oxo-3,4-dihydro-2H-benzo[b][1, 4]thiazin-6-yl)urea]: the IC50 lay in the range of 1 to 10 µM.

Regarding `Cn1ccc2ccc(NC(=O)Nc3ccc4c(c3)N(Cc3ccccc3)C(=O)CS4)cc21` [Example 27, 1-(4-benzyl-3-oxo-3,4-dihydro-2H-benzo[b] [1,4]thiazin-6-yl)-3-(1-methyl-1H-indol-6-yl)urea], the IC50 is above 10 µM.

For the compound `O=C(Nc1ccc2c(c1)N(Cc1ccccc1)C(=O)CS2)Nc1ccc2cn[nH]c2c1` [Example 28, 1-(4-benzyl-3-oxo-3,4-dihydro-2H-benzo[b][1, 4]thiazin-6-yl)-3-(1H-indazol-6-yl)urea], the IC50 is 1 to 10 µM.

`O=C1CCc2ccc(NC(=O)Nc3ccc4c(c3)N(Cc3ccccc3)C(=O)CS4)cc2N1` [Example 29, 1-(4-benzyl-3-oxo-3,4-dihydro-2H-benzo[b][1, 4]thiazin-6-yl)-3-(2-oxo-1,2,3,4-tetrahydro-quinolin-7-yl)urea]: the IC50 lay within 1 to 10 µM.

Turning to `O=C(Nc1ccc2c(c1)N(Cc1ccccc1)C(=O)CS2)Nc1ccc2nc[nH]c2c1` [Example 30, 1-(1H-benzo[d]imidazol-6-yl)-3-(4-benzyl-3-oxo-3,4-dihydro-2H-benzo[b][1, 4]thiazin-6-yl)urea], the IC50 fell in the range of 1 to 10 µM.

With `CN(C(=O)Nc1ccc2cc[nH]c2c1)c1ccc2c(c1)N(Cc1ccccc1)C(=O)CS2` [Example 31, 1-(4-benzyl-3-oxo-3,4-dihydro-2H-benzo[b][1, 4]thiazin-6-yl)-3-(1H-indol-6-yl)-1-methylurea], the IC50 was in the range of 1 to 10 µM.

Take `CC1Sc2ccc(NC(=O)Nc3ccccc3)cc2N(Cc2ccccc2)C1=O` (stereo not shown) [Example 32, 1-(4-benzyl-2-methyl-3-oxo-3,4-dihydro-2H-benzo[b][1, 4]thiazin-6-yl)-3-phenylurea]: the IC50 lay in the range of 1 to 10 µM.

On to `NC(=O)c1ccc(NC(=O)Nc2ccc3c(c2)N(Cc2ccccc2)C(=O)CS3)cc1` [Example 33, 4-(3-(4-benzyl-3-oxo-3,4-dihydro-2H-benzo[b][1, 4]thiazin-6-yl)ureido) benzamide], for which the IC50 was in the range of 1 to 10 µM.

For `C[C@H]1c2ccc(NC(=O)Nc3ccc(F)cc3)cc2N(Cc2ccccc2)C(=O)N1C` [Example 38, (S)-1-(1-benzyl-3,4-dimethyl-2-oxo-1,2,3,4-tetrahydro-quinazolin-7-yl)-3-(4-fluorophenyl)urea], the IC50 is above 10 µM.

Take `CN1Cc2ccc(NC(=O)Nc3ccc(F)cc3)cc2N(Cc2ccccc2)C1=O` [Example 39, 1-(1-Benzyl-3-methyl-2-oxo-1,2,3,4-tetrahydroquinazolin-7-yl)-3-(4-fluorophenyl)urea]: the IC50 lay within 1 to 10 µM.

As to `CN1Cc2ccc(NC(=O)Nc3ccc4cc[nH]c4c3)cc2N(Cc2ccccc2)C1=O` [Example 40], the IC50 was in the range of 1 to 10 µM.

For the compound `O=C1CSc2ccc(OCCc3ccc(F)cc3)cc2N1Cc1c(F)cccc1Cl` [Example 41, 4-(2-Chloro-6-fluorobenzyl)-6-(4-fluorophenethoxy)-2H-benzo[b][1,4]thiazin-3(4H)-one], the IC50 lay in the range of 1 to 10 µM.

As for `O=C1CSc2ccc(COCc3ccc(F)cc3)cc2N1Cc1c(F)cccc1Cl` [Example 42], the IC50 lay within 1 to 10 µM.

For `O=C1CSc2ccc(-c3ncc(-c4ccccc4)[nH]3)cc2N1Cc1c(F)cccc1Cl` [Example 43, 4-(2-Chloro-6-fluorobenzyl)-6-(t-phenyl-1H-imidazol-2-yl)-2H-benzo[b][1,4]thiazin-3(4H)-one], the IC50 lay in the range of 1 to 10 µM.

Consider `O=C1CSc2ccc(-c3n[nH]c(-c4ccccc4)n3)cc2N1Cc1c(F)cccc1Cl` [Example 44, 4-(2-Chloro-6-fluorobenzyl)-6-(5-phenyl-1H-1,2,4-triazol-3-yl)-2H-benzo[b][1,4]thiazin-3(4H)-one], for which the IC50 lay in the range of 1 to 10 µM.

`O=C1CSc2ccc(-c3nnc(Cc4ccccc4)[nH]3)cc2N1Cc1c(F)cccc1Cl` [Example 45]: the IC50 is 1 to 10 µM.

With `O=C1CSc2ccc(-c3nc(-c4ccccc4)co3)cc2N1Cc1c(F)cccc1Cl` [Example 46, 4-(2-Chloro-6-fluorobenzyl)-6-(4-phenyloxazol-2-yl)-2H-benzo[b][1,4]thiazin-3(4H)-one], the IC50 is above 10 µM.

For `O=C(Cc1ccc2cc[nH]c2c1)Nc1ccc2c(c1)N(Cc1ccccc1)C(=O)CS2` [Example 47, N-(4-Benzyl-3-oxo-3,4-dihydro-2H-benzo[b][1,4]thiazin-6-yl)-2-(1H-indol-6-yl)acetamide], the IC50 lay within 1 to 10 µM.

`O=C(Cc1ccco1)Nc1ccc2c(c1)N(Cc1ccccc1)C(=O)CS2` [Example 48, N-(4-benzyl-3-oxo-3,4-dihydro-2H-benzo[b][1,4]thiazin-6-yl)-2-(furan-2-yl)acetamide]: the IC50 was above 10 µM.

With `O=C(c1ccccc1)N1CCSc2ccc(S(=O)(=O)NCc3ccco3)cc21` [Example 49, 4-benzoyl-N-(furan-2-ylmethyl)-3,4-dihydro-2H-benzo[b][1,4]thiazine-6-sulfonamide], the IC50 is above 10 µM.

For the compound `O=C(Nc1ccc2c(c1)N(Cc1ccccc1)CCS2)Nc1ccc2cc[nH]c2c1` [Example 50, 1-(4-Benzyl-3,4-dihydro-2H-benzo[b][1,4]thiazin-6-yl)-3-(1H-indol-6-yl)urea], the IC50 was at most 1 µM.

For the compound `O=C(Nc1ccc2c(c1)NCCO2)Nc1ccc2c(c1)N(Cc1ccccc1)C(=O)CS2` [Example 51, 1-(4-benzyl-3-oxo-3,4-dihydro-2H-benzo[b][1, 4]thiazin-6-yl)-3-(3,4-dihydro-2H-benzo[b][1, 4]oxazin-6-yl)urea], the IC50 was in the range of 1 to 10 µM.

As for `O=C(Nc1ccc(F)cc1)Nc1ccc2c(c1)SCC(=O)N2Cc1ccccc1` [Example 52, 1-(4-benzyl-3-oxo-3,4-dihydro-2H-benzo[b][1, 4]thiazin-7-yl)-3-(4-fluorophenyl) urea], the IC50 was in the range of 1 to 10 µM.

As for `Nc1cccc(CN2C(=O)CSc3ccc(NC(=O)Nc4ccc5cc[nH]c5c4)cc32)c1` [Example 53, l-(4-(3-aminobenzyl)-3-oxo-3,4-dihydro-2H-benzo[b][1, 4]thiazin-6-yl)-3-(1H-indol-6-yl)urea], the IC50 was above 10 µM.

For the compound `O=C(Nc1ccc2c(c1)N(Cc1ccccc1)C(=O)CS2)c1ccc2cc[nH]c2c1` [Example 55, N-(4-benzyl-3-oxo-3,4-dihydro-2H-benzo[b][1,4]thiazin-6-yl)-1H-indole-6-carboxamide], the IC50 was 1 to 10 µM.

Turning to `O=C(Nc1ccc2c(c1)N(Cc1ccccc1)CCO2)Nc1ccc2cc[nH]c2c1` [Example 56, 1-(4-benzyl-3,4-dihydro-2H-benzo[b][1, 4]oxazin-6-yl)-3-(1H-indol-6-yl)urea], the IC50 lay within 1 to 10 µM.

As to `O=C(Nc1ccc2c(c1)N(C(=O)c1ccccc1)CCS2)Nc1ccc2cc[nH]c2c1` [Example 57, 1-(4-benzoyl-3,4-dihydro-2H-benzo[b][1, 4]thiazin-6-yl)-3-(1H-indol-6-yl)urea], the IC50 was above 10 µM.

Take `CN(C(=O)Nc1ccc2c(c1)N(Cc1ccccc1)C(=O)CS2)c1ccc2cc[nH]c2c1` [Example 59, 3-(4-benzyl-3-oxo-3,4-dihydro-2H-benzo[b][1, 4]thiazin-6-yl)-l-(1H-indol-6-yl)-1-methylurea]: the IC50 was in the range of 1 to 10 µM.

For the compound `Cc1cc(CN2C(=O)CSc3ccc(NC(=O)Nc4ccc5cc[nH]c5c4)cc32)ccn1` [Example 60], the IC50 fell in the range of 1 to 10 µM.

Take `O=C(Nc1ccc2c(c1)OCCN2Cc1ccccc1)Nc1ccc2cc[nH]c2c1` [Example 62, 1-(4-Benzyl-3,4-dihydro-2H-benzo[b][1,4]oxazin-7-yl)-3-(1H-indol-6-yl)urea]: the IC50 was above 10 µM.

For the compound `O=C(Nc1ccc2c(c1)SCCN2Cc1ccccc1)Nc1ccc2cc[nH]c2c1` [Example 63, 1-(4-benzyl-3,4-dihydro-2H-benzo[b][1, 4]thiazin-7-yl)-3-(1H-indol-6-yl)urea], the IC50 is above 10 µM.

On to `O=C(Nc1ccc2c(c1)N(Cc1ccccc1)CCS2)Nc1c[nH]c2ccccc12` [Example 64, 1-(4-benzyl-3,4-dihydro-2H-benzo[b][1, 4]thiazin-6-yl)-3-(1H-indol-3-yl)urea], for which the IC50 was 1 to 10 µM.

Turning to `O=C(Nc1ccc2c(c1)N(CC1CC1)CCS2)Nc1ccc2cc[nH]c2c1` [Example 65, 1-(4-(cyclopropyl-methyl)-3,4-dihydro-2H-benzo[b][1, 4]thiazin-6-yl)-3-(1H-indol-6-yl)urea], the IC50 was at most 1 µM.

Consider `O=C(Nc1ccc2c(c1)N(Cc1ccncc1)CCS2)Nc1ccc2cc[nH]c2c1` [Example 66, 1-(1H-indol-6-yl)-3-(4-(pyridin-4-ylmethyl)-3,4-dihydro-2H-benzo[b][1, 4]thiazin-6-yl)urea], for which the IC50 is at most 1 µM.

For the compound `O=C(Nc1ccc2c(c1)N(CC1CCCC1)CCS2)Nc1ccc2cc[nH]c2c1` [Example 67, 1-(4-(cyclopentylmethyl)-3,4-dihydro-2H-benzo[b][1, 4]thiazin-6-yl)-3-(1H-indol-6-yl)urea], the IC50 was at most 1 µM.

Take `O=C(Nc1ccc2c(c1)N(CCN1CCCC1)CCS2)Nc1ccc2cc[nH]c2c1` [Example 68, 1-(1H-indol-6-yl)-3-(4-(2-(pyrrolidin-1-yl)ethyl)-3,4-dihydro-2H-benzo[b][1, 4]thiazin-6-yl)urea]: the IC50 fell in the range of 1 to 10 µM.

As to `O=C(Nc1ccc2c(c1)OCC(=O)N2Cc1ccccc1)Nc1ccc2cc[nH]c2c1` [Example 69, 1-(4-Benzyl-3-oxo-3,4-dihydro-2H-benzo[b][1,4]oxazin-7-yl)-3-(1H-indol-6-yl)urea], the IC50 was at most 1 µM.
